Results on three molecules are retold here after US5872118A, “Bicyclic amide derivatives and their use as muscle relaxants” (Glaxo Wellcome Inc., priority 1993, dated 1999).

Where two headings read alike, the source gives them in different places. Bounds are passed on as bounds.

Data set [1] in a line: mouse rotorod test (sedation and incoordination). The following applies: in vivo, po; for selectivity ratio: ratio of rotorod ED50 to Straub tail ED50, p.o. How it is done:
The side effect potential of these compounds was determined using the mouse rotorod test as described by G. D. Novak and J. M. Zwolshei, J.Pharmacological. Methods, 10, 175 (1983). Rotorod result is reported as ED50 in mg/kg. The ED50 is the dose which causes 50% of the animals to fail to maintain position on a cylinder rotating at 11 r.p.m.
(§1) Antagonism of morphine-induced Straub tail reflects central muscle relaxant efficacy while failure in the rotorod test reflects sedation and incoordination. Determination of the ratio of rotorod failure to antagonism of morphine-induced Straub tail is a means of assessing side effect liability of central muscle relaxants (G. D. Novak, Drug Dev. Res., 2, 383 (1982).

The subject of data set [2] is morphine-induced Straub tail. Briefly: Straub tail test (central muscle relaxant activity). Type of data set: in vivo. The following applies: Mus musculus, 1 h; mice, oral gavage 60 min prior to scoring; dose preventing Straub tail in 50% of mice; read-out: Straub Tail p.o. ED50. How it is done:
Central muscle relaxant activity of compounds of formula (I) was determined using a Straub tail test based on that described by K. O. Ellis and J. F. Carpenter, Neuropharrnacol, 13, 211 (1974).
The Straub tail test result is reported as an ED50 in mg/kg. The ED50 is defined as the dose of compound administered, which prevents Straub tail in 50% of mice. The compound is administered by oral gavage 60 min. prior to scoring.
as §1

A short description of data set [3]: single dose oral toxicity. It counts as in vivo, male CD-1 mice. The note with it: mouse, in vivo; single oral gavage, non-fasted male CD-1 mice, seven days; read-out: maximum tolerated dose. Here is the method: (§2) Single doses (15, 45, 100 or 250 mg/kg) were administered by oral gavage to groups of four non-fasted male CD-1 mice (Charles River).
(§3) Single doses (5, 15, 40, 100, 250, 500 or 1000 mg/kg) were administered by oral gavage to groups of four non-fasted male CD-1 mice (Charles River).

For data set [4], the system named is CD-1 mice. Description: single dose oral toxicity. Type of data set: in vivo, male CD-1 mice. The note with it: within the seven days post dosing, single oral gavage, male CD-1 mice. How it is done:
as §2, §3

Data set [5] concerns carrageenan-induced cell accumulation and edema formation within the rat pleural cavity. Briefly: carrageenan pleurisy assay (anti-inflammatory activity). It counts as in vivo, rat (Lewis male). The note with it: po, fasted rats, 0.5 hr before carrageenan, 4 hr. Here is the method: The rats used in these experiments were Lewis males, weighing 160-180 g, assigned to groups consisting of 5 animals. Test compounds were given to fasted rats by oral gavage 0.5 hr prior to intrapleural injection of 50 mg carrageenan. After 4 hr, the pleural exudate was collected and the edema volume and cell number were determined. ED50 values were estimated by linear regression analysis, and represent the doses at which a given drug produced 50% inhibition of carrageenan-induced cell accumulation and edema formation within the rat pleural cavity.

In data set [6] the test system is established adjuvant-induced polyarthritis. Briefly: established adjuvant-induced polyarthritis. It counts as in vivo, rat (female Lewis). The note with it: 50 mg/kg b.i.d. Here is the method:
The procedures for this test have been described in detail by R. Vinegar, J. F. Truax, J. L. Selph, A. Lea, and P. R. Johnston (J. Immunopharmacol. 1:497-520, 1979). The rats used in these studies were female Lewis rats whose starting weight was 190±10 g. Arthritic rats were assigned to treatment groups consisting of six animals each. Fed rats were dosed by oral gavage starting on day 21 post adjuvant injection; therapy was continued until day 28. The incidence and severity of arthritic lesions were assessed using a modification of the scoring procedure described by H. L. F. Currey and M. Ziff (J. Exp. Med. 121:185-203, 1968). Briefly, the bilateral joints were scored for erythema, edema, and ankylosis as outlined below:
The maximal possible score per rat was 40. Experimental results were analyzed by one-way ANOVA, followed by post hoc comparisons of treatment effects versus untreated arthritic control using the Newman-Keuls test. The percent inhibition of each drug-treated group was calculated from the mean relative to the arthritic control.

The test system of data set [7] is algesic response to mechanical force clamp on the phalanges. Briefly: phalanges algesic assay (strong analgesia). It counts as in vivo, rat (Lewis male). The note with it: Rattus norvegicus, po, 1 h; p.o., fasted rats, one hour after dosing; 50% inhibition of latency response. How it is done: The rats used in these studies were Lewis male weighing 160-180 g and assigned to groups of 5-6 animals. The phalanges algesic assay is an algesic test (no hyperalgesia) in which test compounds were given to fasted rats by oral gavage. One hour later an F-shaped mechanical force clamp was applied to the phalanges of one hind limb which initiated an algesic response(vocalization or flight). Latency (seconds) to the algesic response was determined with 3 seconds maximum allowed time. ED50 values were estimated by linear regression analysis and represent the dose at which a given compound extended the latency response to produce 50% inhibition using the formula: (3 sec.-Control Latency)-(3 sec.-Test Latency)/3 sec.-Control Latency×100.

Data set [8] concerns trypsin-induced rat hind limb hyperalgesia. Briefly: trypsin-induced rat hind limb hyperalgesia assay (mild analgesia). Type of data set: in vivo, rat (Lewis male). The following applies: po, fasted rats, 0.5 hours prior to trypsin, 50% inhibition of latency response. How it is done: The rats used in these studies were Lewis male, weighing 160-180 g. and assigned to groups consisting of 5-6 animals. Test compounds were given to fasted rats by oral gavage 0.5 hours prior to the subplantar injection of […] trypsin in one hind limb. One hour later the rats were evaluated for hyperalgesia using an F-shaped mechanical force clamp on the injected hind limb metatarsal area. Latency (seconds) to the algesic response (vocalization or flight) was determined, with 4 seconds being the maximum latency allowed. ED50 values were estimated by linear regression analysis and represent the dose at which a given drug extended the latency response to produce 50% inhibition using the formula: (4 sec.-Control Latency)-(4 sec.-Test Latency)/4 sec.-Control Latency×100.

In data set [9] the test system is punished responding. Briefly: anxiolytic activity, punished responding (Geller and Seifter). It counts as in vivo. The note with it: Rattus norvegicus, po; rats, p.o.; lowest dose producing significant increase in punished responding; read-out: MED (Minimal Effective Dose). Here is the method: Anxiolytic activity of compounds of formula (I) was measured using the method of Geller and Seifter, J.Psychopharmacolgia, 1, 482 (1960) as modified by Pollard and Howard, Psychopharmacology, 62, 117 (1979). Clinically efficacious anxiolytics increase punished responding. The anxiolytic activity of the compound is reported as the lowest dose necessary to produce a significant increase in punished responding in rats(MED).

In data set [10] the test system is maximal electroshock-induced convulsions. Briefly: protection against maximal electroshock-induced convulsions. Type of data set: in vivo. The following applies: ip; rat, i.p.; prevention of hind limb extension in 50% of animals; read-out: ED50 MES (maximal electroshock). How it is done:
Anticonvulsant activity of compounds of formula (I) was determined using a method described by Mehta et al., J.Med.Chem., 24, 465 (1981).
The anticonvulsant activity is reported as an ED50 in mg/kg. The ED50 for protection against maximal electroshock-induced convulsions was the dose which prevented hind limb extension in 50% of the animals. The ED50 for protection against Metrazol-induced convulsions was the dose which prevented convulsions in 50% of the animals.

The mark [11] stands for this setting: 50% inhibition of cell accumulation, read-out: ED50 Cells.
The mark [12] stands for this setting: 50% inhibition of edema formation, read-out: ED50 Edema.

One may read the TD50 as the 50% point of the dose-response relation for the toxic effect studied. Low readings indicate greater toxicity, high ones lower toxicity. A word on the ED50: it is the midpoint of the dose-response relation. On to `NC(=O)/C=C1\CCc2ccc(F)cc21` [Example 1, (E)-2-(6-Fluoro-1-indanylidene)acetamide], for which, in [1], the TD50 was 88 mg/kg. For the same molecule, the selectivity ratio in data set [1] was 1.7. Also, the figures for the ED50 in data set [2], in data set [5] (setting [11]) and in [5] (setting [12]) were 51 mg/kg, 21 mg/kg and 20 mg/kg, respectively. The MTD at 168 h in data set [3] was more than 250 mg/kg. Besides, in data set [4], the deaths entry is “no deaths”.

With `NC(=O)/C=C1\CCc2c(F)cc(F)cc21` [Example 5, (E)-2-(4,6-difluoro-1-indanylidene)acetamide], the arthritic scores entry in data set [6] (days 22, 25, and 27, oral gavage) is recorded as “significantly (p<0.01) lowered”. In [6] (postmortem on day 27), the Spleen weight result was “significantly reduced (p<0.01)”. The plasma fibrinogen entry in data set [6] (postmortem on day 27) is on record as “significantly reduced (p<0.01)”. Besides, in data set [1], the TD50 came to 79 mg/kg. Also, the selectivity ratio in data set [1] turned out to be 1.5. Further, the ED50 was 54 mg/kg in data set [2]; 22 mg/kg in [7]; 4 mg/kg in data set [8]; 16 mg/kg in [5] (setting [11]); 12 mg/kg in data set [5] (setting [12]). Moreover, in data set [3], the MTD at 168 h is more than 1000 mg/kg. Moreover, in [4], the deaths result is “no deaths”.

As a reminder, the minimal effective dose is the smallest amount tested that counted as effective. On to `O=C(/C=C1\CCCc2ccc(F)cc21)NC1CC1` [Example 13, (E)-N-Cyclopropyl-2-(7-fluoro-1,2,3,4-tetrahydro-1-naphthylidene)acetamide], for which the minimal effective dose in data set [9] amounted to 3.13 mg/kg. The ED50 in [10] was 25 mg/kg.
